Laboratory results as given in the CheMixHub ionic liquid set.
Where “and” joins values, the source holds several entries; their conditions need not be identical. Equal values may be shown once.

Test: xn = mol fraction of the nth substance listed

CCCCCCCCCCCC[P+](CC)(CC)CC.N#Cc1ccc[n-]1 + OCC(O)CO
100 kPa
Conditions | electrical conductivity, 293.15 K [S/m] | electrical conductivity, 303.15 K [S/m] | electrical conductivity, 313.15 K [S/m] | viscosity, 293.15 K [mPa·s] | viscosity, 298.15 K [mPa·s] | viscosity, 303.15 K [mPa·s] | viscosity, 313.15 K [mPa·s]
x1 = 0.001 | 0.0008 | 0.0015 | 0.0028 | – | – | – | –
x1 = 0.003 | 0.0025 | 0.0035 | 0.0061 | 1352 | 860 | 540 | 214
x1 = 0.005 | 0.0037 | 0.0051 | 0.0091 | – | – | – | –
x1 = 0.007 | 0.0052 | 0.0065 | 0.0116 | – | – | – | –
x1 = 0.01 | 0.0064 | 0.0076 | 0.0137 | 1415 | 910 | 573 | 230
x1 = 0.013 | 0.0076 | 0.0105 | 0.0192 | – | – | – | –
x1 = 0.016 | 0.0081 | 0.0125 | 0.0233 | – | – | – | –
x1 = 0.021 | 0.0086 | 0.0154 | 0.0287 | – | – | – | –
x1 = 0.026 | 0.0096 | 0.0166 | 0.0312 | 1652 | 1024 | 620 | 254
x1 = 0.032 | 0.0102 | 0.0186 | 0.0342 | – | – | – | –
x1 = 0.041 | 0.0111 | 0.0201 | 0.0368 | 2113 | 1316 | 790 | 321
x1 = 0.049 | 0.0122 | 0.0233 | 0.0429 | – | – | – | –
x1 = 0.056 | 0.0129 | 0.0252 | 0.0463 | 2377 | 1481 | 910 | 364
x1 = 0.094 | 0.014 | 0.0256 | 0.0475 | – | – | – | –
x1 = 0.139 | 0.012 | 0.0279 | 0.0522 | 2442 | 1568 | 1018 | 442
x1 = 0.196 | – | – | – | 2342 | 1501 | 960 | 423
x1 = 0.292 | 0.0092 | 0.0261 | 0.0495 | 1719 | 1114 | 730 | 336
x1 = 0.343 | 0.0092 | 0.0203 | 0.0398 | 1481 | 970 | 658 | 307
x1 = 0.426 | – | – | – | 1086 | 710 | 473 | 230
x1 = 0.481 | 0.0109 | 0.0206 | 0.0404 | – | – | – | –
x1 = 0.542 | – | – | – | 940 | 638 | 443 | 231
x1 = 0.677 | 0.0131 | 0.0239 | 0.0453 | 860 | 600 | 425 | 214
x1 = 0.815 | 0.0183 | 0.0357 | 0.0635 | 623 | 441 | 321 | 164
x1 = 1 | 0.0267 | 0.0448 | 0.0786 | 422 | 296 | 212 | 117

CCCC[n+]1ccn(C)c1.N#C[N-]C#N + OCC(O)CO + O
viscosity [mPa·s], 101 kPa
Conditions | x2 = 0.00317, x3 = 0.9588 | x2 = 0.005245, x3 = 0.8687 | x2 = 0.006424, x3 = 0.955 | x2 = 0.009764, x3 = 0.9511 | x2 = 0.01072, x3 = 0.8605 | x2 = 0.0132, x3 = 0.9472 | x2 = 0.01645, x3 = 0.8519 | x2 = 0.02243, x3 = 0.8428
313.15 K | 1.38 | 1.68 | 1.46 | 1.53 | 1.72 | 1.59 | 1.78 | 1.81
333.15 K | 1.25 | 1.33 | 1.29 | 1.34 | 1.37 | 1.39 | 1.41 | 1.43
353.15 K | 1.03 | 1.15 | 1.03 | 1.07 | 1.17 | 1.08 | 1.22 | 1.34

CCCCCCCCCCCC[P+](CC)(CC)CC.N#Cc1ccc[n-]1 + OCCN(CCO)CCO
100 kPa
Conditions | electrical conductivity [S/m] | viscosity [mPa·s]
293.15 K, x1 = 0.01 | 0.0023 | –
293.15 K, x1 = 0.035 | 0.0045 | 990
293.15 K, x1 = 0.207 | – | 880
293.15 K, x1 = 0.473 | – | 850
293.15 K, x1 = 0.583 | 0.0111 | –
298.15 K, x1 = 0.051 | – | 652
298.15 K, x1 = 0.207 | – | 585
298.15 K, x1 = 0.809 | – | 506
313.15 K, x1 = 0.051 | – | 189
313.15 K, x1 = 0.207 | – | 186

C[n+]1ccn(CCCCCn2cc[n+](C)c2)c1.O=S(=O)([N-]S(=O)(=O)C(F)(F)F)C(F)(F)F.O=S(=O)([N-]S(=O)(=O)C(F)(F)F)C(F)(F)F + OCCOCCOCCOCCO
viscosity, 101 kPa
Conditions | 293.15 K | 303.15 K | 313.15 K | 323.15 K | 333.15 K
x1 = 0.3283 | 178.4 mPa·s | 93.1 mPa·s | 56.5 mPa·s | 36.2 mPa·s | 22.4 mPa·s
x1 = 0.55 | 448 mPa·s | 233 mPa·s | 128 mPa·s | 81.7 mPa·s | 54.9 mPa·s
x1 = 0.7097 | 627 mPa·s | 316 mPa·s and 318 mPa·s | 177.9 mPa·s and 180.1 mPa·s | 107.7 mPa·s | 67.9 mPa·s
x1 = 1 | 1125 mPa·s | 555 mPa·s | 313 mPa·s | 192.3 mPa·s | 123.2 mPa·s

CC(=O)[O-].CC[n+]1ccn(C)c1 + OC[C@@H](O)[C@@H](O)[C@H](O)[C@@H](O)CO
Conditions | viscosity [mPa·s]
313.15 K, 100 kPa, x2 = 0 | 53.4

CCCC[N+](C)(CCCC)CCCC.[Cl-] + OC[C@H]1O[C@@H](O[C@H]2[C@H](O)[C@@H](O)[C@@H](O)O[C@@H]2CO)[C@H](O)[C@@H](O)[C@H]1O + O
viscosity [mPa·s], 100 kPa
Conditions | 293.15 K | 298.15 K | 303.15 K | 308.15 K | 313.15 K
x2 = 0, x1 = 0.0003603 | 1.01 | 0.904 | 0.809 | 0.726 | 0.661
x2 = 0, x1 = 0.0007023 | 1.024 | 0.914 | 0.815 | 0.735 | 0.671
x2 = 0, x1 = 0.001062 | 1.035 | 0.93 | 0.829 | 0.744 | 0.686
x2 = 0, x1 = 0.001422 | 1.045 | 0.941 | 0.839 | 0.756 | 0.694
